For one data set, the target named is T1, CYP1A2 (Homo sapiens, UniProt P05177).
T1 sequence (P05177 1-516): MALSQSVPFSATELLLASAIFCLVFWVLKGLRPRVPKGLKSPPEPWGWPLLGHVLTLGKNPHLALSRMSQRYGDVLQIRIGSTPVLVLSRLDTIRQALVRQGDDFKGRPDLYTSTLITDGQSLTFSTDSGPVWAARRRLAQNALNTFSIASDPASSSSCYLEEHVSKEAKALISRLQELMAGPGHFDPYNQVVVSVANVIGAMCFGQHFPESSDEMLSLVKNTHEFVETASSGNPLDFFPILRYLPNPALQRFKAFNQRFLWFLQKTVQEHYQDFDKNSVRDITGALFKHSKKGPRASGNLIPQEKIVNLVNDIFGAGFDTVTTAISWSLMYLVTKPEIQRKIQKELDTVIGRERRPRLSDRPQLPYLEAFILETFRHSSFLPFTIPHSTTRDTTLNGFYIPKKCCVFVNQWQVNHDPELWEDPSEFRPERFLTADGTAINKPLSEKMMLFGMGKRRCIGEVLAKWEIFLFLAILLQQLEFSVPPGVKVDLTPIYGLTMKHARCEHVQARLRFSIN
The data set is described as follows: CYP1A2 fluorescence-based high throughput inhibition assay. To be noted: graded by inhibition evaluation standards. The format is in vitro ADME.

Data set [1] concerns the target T2, CYP2C19 (Homo sapiens, UniProt P33261). The conditions noted are these: HLMs; cited from earlier work.
Another data set has as its target CYP2E1 (Homo sapiens, UniProt P05181). The data set is described as follows: CYP2E1 inhibition, HPLC-UV assay of 6-hydroxychlorzoxazone formation. It is filed as in vitro ADME. To be noted: graded by inhibition evaluation standards.
The test system of another data set is rheumatoid arthritis. To be noted: 500 mg daily for 8 weeks, 50 women with rheumatoid arthritis; cited from earlier work.
Data set [2] has as its target T3, CYP2D6 (Homo sapiens, UniProt P10635). Kind of data set: CYP2D6 fluorescence-based high throughput inhibition assay. The conditions noted are these: graded by inhibition evaluation standards. It is filed as in vitro ADME.
Data set [3] concerns the target T2, CYP2C19. The data set is described as follows: CYP2C19 fluorescence-based high throughput inhibition assay. The format is in vitro ADME. The conditions noted are these: graded by inhibition evaluation standards.
Data set [4] concerns the target T3, CYP2D6. The conditions noted are these: HLMs; cited from earlier work.
The target in a further data set is CYP3A4 (Homo sapiens, UniProt P08684). Kind of data set: CYP3A4 fluorescence-based high throughput inhibition assay. It is filed as in vitro ADME. To be noted: graded by inhibition evaluation standards.
Chain of CYP3A4 (P08684 whole entry): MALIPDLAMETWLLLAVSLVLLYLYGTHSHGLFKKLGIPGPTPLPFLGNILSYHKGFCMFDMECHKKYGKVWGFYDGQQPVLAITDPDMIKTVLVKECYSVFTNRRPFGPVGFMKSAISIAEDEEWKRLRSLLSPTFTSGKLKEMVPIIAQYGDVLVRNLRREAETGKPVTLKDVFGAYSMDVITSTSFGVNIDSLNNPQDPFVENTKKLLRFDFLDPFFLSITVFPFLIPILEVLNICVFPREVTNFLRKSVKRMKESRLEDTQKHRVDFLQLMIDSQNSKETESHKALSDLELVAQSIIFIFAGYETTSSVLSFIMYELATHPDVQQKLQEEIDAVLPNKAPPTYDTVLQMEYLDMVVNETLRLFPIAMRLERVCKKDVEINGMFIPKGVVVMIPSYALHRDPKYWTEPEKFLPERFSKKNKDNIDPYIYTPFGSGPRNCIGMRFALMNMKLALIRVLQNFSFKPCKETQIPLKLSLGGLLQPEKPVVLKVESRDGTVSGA
The conditions of data set [5]: cited from earlier work.
Another data set concerns CYP3A2. To be noted: diabetic rats, single dose TQ; cited from earlier work.

“Also recorded” adds a separate entry of the source. Where two headings read alike, the source gives them in different places.

T2 sequence (P33261 whole entry): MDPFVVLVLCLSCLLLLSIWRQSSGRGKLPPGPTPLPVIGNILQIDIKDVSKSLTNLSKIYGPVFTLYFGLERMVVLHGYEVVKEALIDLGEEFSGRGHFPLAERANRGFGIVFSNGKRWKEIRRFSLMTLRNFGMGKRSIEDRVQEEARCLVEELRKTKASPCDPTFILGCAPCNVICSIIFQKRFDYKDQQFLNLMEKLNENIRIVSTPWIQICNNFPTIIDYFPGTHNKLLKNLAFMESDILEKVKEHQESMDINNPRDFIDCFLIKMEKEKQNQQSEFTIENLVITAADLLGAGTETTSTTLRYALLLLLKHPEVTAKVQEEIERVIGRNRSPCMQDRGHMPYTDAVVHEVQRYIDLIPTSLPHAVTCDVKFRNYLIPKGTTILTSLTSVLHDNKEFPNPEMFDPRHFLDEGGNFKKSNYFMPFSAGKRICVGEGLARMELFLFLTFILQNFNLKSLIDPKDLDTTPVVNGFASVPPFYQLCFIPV
T3 sequence (P10635 whole entry): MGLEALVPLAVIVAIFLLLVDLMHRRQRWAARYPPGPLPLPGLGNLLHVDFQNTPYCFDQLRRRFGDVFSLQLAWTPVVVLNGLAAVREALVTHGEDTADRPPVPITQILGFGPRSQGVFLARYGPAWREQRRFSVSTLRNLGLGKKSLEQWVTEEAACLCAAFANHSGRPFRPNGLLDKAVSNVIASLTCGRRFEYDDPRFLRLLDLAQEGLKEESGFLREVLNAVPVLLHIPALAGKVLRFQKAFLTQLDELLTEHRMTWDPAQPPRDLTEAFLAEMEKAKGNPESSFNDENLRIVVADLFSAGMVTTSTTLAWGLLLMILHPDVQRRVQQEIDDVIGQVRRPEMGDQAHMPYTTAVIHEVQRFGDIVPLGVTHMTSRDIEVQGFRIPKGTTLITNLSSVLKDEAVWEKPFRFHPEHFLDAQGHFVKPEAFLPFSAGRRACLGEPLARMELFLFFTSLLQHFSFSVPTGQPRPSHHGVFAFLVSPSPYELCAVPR
Chain of CYP2E1 (P05181 whole entry): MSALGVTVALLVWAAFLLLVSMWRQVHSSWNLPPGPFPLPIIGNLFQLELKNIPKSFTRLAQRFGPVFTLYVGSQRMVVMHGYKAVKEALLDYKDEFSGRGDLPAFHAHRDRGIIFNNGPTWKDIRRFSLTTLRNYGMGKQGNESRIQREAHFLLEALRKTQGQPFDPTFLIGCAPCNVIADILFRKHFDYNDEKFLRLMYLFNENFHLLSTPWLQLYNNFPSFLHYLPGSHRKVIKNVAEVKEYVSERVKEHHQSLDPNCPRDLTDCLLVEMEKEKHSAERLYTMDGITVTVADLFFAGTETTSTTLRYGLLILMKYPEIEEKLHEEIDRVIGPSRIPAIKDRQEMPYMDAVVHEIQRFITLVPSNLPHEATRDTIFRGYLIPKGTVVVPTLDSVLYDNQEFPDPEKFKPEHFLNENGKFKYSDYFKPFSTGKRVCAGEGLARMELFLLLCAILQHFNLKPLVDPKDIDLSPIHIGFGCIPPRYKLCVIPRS

Turning to `O=c1c(O)c(-c2ccc(O)c(O)c2)oc2cc(O)cc(O)c12` [QR, Quercetin], the “inhibitory effect on CYP1A2 activity (in words)” value against CYP1A2 is reported as “neither QR nor TQ has any significant inhibitory effect”. The “inhibition of CYP2C19 (in words)” value at CYP2C19 [1] is on record as “potent competitive inhibitor”. Further, the “inhibitory effect on CYP2E1 activity (in words)” value against CYP2E1 is given as “neither QR nor TQ has any significant inhibitory effect”. The “clinical symptoms, disease activity, hs-TNF-α and erythrocyte sedimentation rate” value with rheumatoid arthritis is recorded as “significant improvements”. Besides, on CYP2D6 [2], the “inhibitory effect on CYP2D6 activity (in words)” value was “strong inhibitory effect”. Besides, the “inhibitory effect on CYP2C19 activity (in words)” value at CYP2C19 [3] is listed as “moderate inhibitory effect; also recorded: moderate inhibitors”. Besides, the “inhibition of CYP2D6 (in words)” value on CYP2D6 [4] is “moderate competitive inhibitor”. Further, the “inhibitory effect on CYP3A4 activity (in words)” value against CYP3A4 was “moderate to strong inhibitory effect”.
`CC1=CC(=O)C(C(C)C)=CC1=O` [TQ, Thymoquinone]: the “inhibitory effect on CYP1A2 activity (in words)” value against CYP1A2 is on record as “neither QR nor TQ has any significant inhibitory effect”. In addition, the “inhibitory effect on CYP2E1 activity (in words)” value at CYP2E1 was “neither QR nor TQ has any significant inhibitory effect”. Besides, the “increase in t½ of glibenclamide” value in [5] (chronic administration of TQ) is given as 92%. For the same compound, in data set [5] (diabetic rats, single dose TQ), the “increase in AUC of glibenclamide” value is on record as 32.0% and the “increase in t½ of glibenclamide” value is 17.4%. In addition, at CYP2D6 [2], the “inhibitory effect on CYP2D6 activity (in words)” value was “no inhibitory effect”. Also, the “hepatic protein expressions of CYP3A2 enzymes” value in the data set with CYP3A2 is “marked decrease”. The “inhibitory effect on CYP2C19 activity (in words)” value at CYP2C19 [3] is reported as “moderate inhibitory effect”. Also, the “inhibitory effect on CYP3A4 activity (in words)” value at CYP3A4 is listed as “moderate to strong inhibitory effect”.

Source of the values: PMC5822518 (Pharmacognosy Magazine, 2018).
